# Tests used:
# [1] = tested on: M2a macrophages; test: Flow cytometry of CD163 and CD86 on activated M2a macrophages cultured in IL-4; format: cell-based, human; conditions: M2a macrophages cultured in IL-4, immunosuppressive conditions
# Procedure: Steps for an alternative method for in vitro culture and characterization of human macrophages that includes activation of M1 and M2 macrophages (designated M1a and M2a macrophages) are outlined below. This methodology was used in the next series of experiments.
# Phenotypic and functional evaluation of β-glucan-treated M2a and β-glucan-treated M2 macrophages in the presence of immunosuppressive cytokines was carried out. M2 or M2a macrophages were prepared as described above. On day 3, tumor-conditioned medium (TCM) was added M2 macrophage cultures to account for 70% of the volume of the culture and then evaluated for CD163 expression and functional activity on day 6. […] M2a macrophages were cultured in IL-4 as described above.
# The β-glucan-treated M2a macrophages cultured in IL-4 and M2 macrophages cultured in TCM were first evaluated for CD163 and CD86 expression. CD163 and CD86 were evaluated by flow cytometry and median MFI was calculated for isotype control staining and surface antigen staining and the results are shown in Table 5.
# [2] = tested on: CD33+ MDSC; test: MDSC in peripheral blood of a case study subject treated with IMPRIME PGG; format: in vivo, human; conditions: post-infusion, cycle 8, day 1; within hours
# Description: Blood was drawn at various times from a case study subject undergoing treatment with IMPRIME PGG and analyzed for the presence of MDSC. The first blood draw was done pre-infusion, cycle 8, day 1. […] A second blood draw was done post-infusion, cycle 8, day 1. […] The last blood sample was drawn pre-infusion, cycle 8, day 15. The CD33^+ MDSC are again present in the peripheral blood.
# [3] = tested on: MiaPaCa; test: PD-L1 upregulation in MiaPaCa tumor cells by treated M2 macrophages; format: cell-based
# Procedure: β-glucan- and vehicle-treated M2 macrophages and β-glucan-treated M2 macrophages+ABA were cultured with high binder serum and low binder serum to evaluate PD-L1 expression on tumor cells.
# [4] = tested on: IL-4; test: IL-4 analysis of co-culture supernatants; format: cell-based, human; conditions: co-cultures of β-glucan-treated M2 macrophages and CD4 T cells
# Procedure: CD14^+ monocytes from human whole blood were enriched using Ficoll gradient and magnetic bead separation. Enriched monocytes (5×10^5 cells per mL) were then cultured in either M1-polarizing (XVivo 10 media (Lonza Group) supplemented with 5% autologous serum and 100 ng/mL recombinant human granulocyte macrophage colony-stimulating factor (rhGM-CSF) (R&D Systems) or M2-polarizing (XVivo 10 media supplemented with 10% autologous serum and 50 ng/mL recombinant human macrophage colony-stimulating factor (rhM-CSF) (R&D Systems) conditions for 6 days. In experiments performed to evaluate the effect of β-glucan, whole blood was first incubated with vehicle (sodium citrate buffer) or 25 μg/mL soluble β-glucan for 2 hours at 37° C. and then the monocytes were isolated and differentiated. Morphology was checked before macrophages were harvested for phenotypic analysis. […] T cell proliferation was measured at the end of the experiment (day 9-day 11) by flow cytometry, and results are graphically shown as CFSE-dilution peaks. […] Quantitative results were reported as the Division Index (the average number of cell divisions a population underwent) calculated for each of the triplicate wells in each of the culture conditions. […]
# Modulation of IFN-γ and IL-4 production of vehicle- and β-glucan-treated M2 macrophages was then evaluated. […]
# [5] = tested on: MC38 tumor cells; test: MC38 tumor model, tumor-free survival; format: in vivo; conditions: C57BL/6 mice, MC38 s.c.; biweekly from day 3; 1.2 mg/mouse IMPRIME PGG, 100 μs/mouse anti-PDL-1; survivors/group size
# Procedure: In another animal study, mice were injected with MC38 tumor cells and randomized into treatment groups. 8 to 12 week-old female C57BL/6 mice were injected with 1×10^6 MC38 tumor cells, a colon adenocarcinoma that expresses low levels of PD-L1, in a volume of 0.1 ml injected subcutaneously in the flank. Mice were dosed biweekly starting on day 3 with the following agents: • 0.2 ml/mouse vehicle • 1.2 mg/mouse IMPRIME PGG (Biothera, Inc.) • 100 μs/mouse anti-PDL-1 Clone: 10F.9G2 BioXcell Catalog#: BE0101
# Blood samples were collected 1 hour prior to dose 1, 2 hours after dose 3, the endpoint and 2 hours after the last dose (day 20). Treatment groups included vehicle (PBS control), IMPRIME PGG alone, anti-PD-L1 antibody alone and anti-PD-L1+IMPRIME PGG. Tumors were randomized to treatment groups once sizes reached a group mean of 150 mm^3.
# [6] = tested on: mMoDC; test: Flow cytometry of maturation markers on mature monocyte-derived dendritic cells (mMoDC); format: cell-based, human
# Procedure: Given that macrophages and dendritic cells are the two key antigen presenting cell types that bridge innate and adaptive immunity, the phenotypic and functional effect of soluble β-glucan was also evaluated on human monocyte-derived dendritic cells (MoDC). Monocytes enriched from soluble β-glucan- or vehicle-treated whole blood were cultured in media containing the appropriate cytokines, GM-CSF plus IL-4, for differentiation of dendritic cells. Steps included in the method for in vitro culture and characterization of human MoDCs are outlined below.
# The phenotypic and functional evaluation of mMoDC prepared from soluble β-glucan-treated whole blood of a high binder and low binder was carried out. mMoDCs from a high binder and a low binder were prepared as described above. mMoDCs were evaluated for CD80, CD83, CD86 and HLA-DR expression by flow cytometry, and median MFI was calculated for isotype control staining and surface antigen staining and the results are shown in Table 7.
# MoDC derived from β-glucan-treated monocytes are more mature even in immunosuppressive conditions. MoDCs were prepared as described above. TCM was added to account for 70% of the volume of the culture on day 0 and was present throughout the culturing period. mMoDCs cultured in the presence of TCM were subsequently evaluated for phenotypic changes.
# [7] = MoDC cultured in TCM, immunosuppressive conditions
substance,measurement,setting,value
"β(1,6)-[poly-(1,3)-D-glucopyranosyl]-poly-β(1,3)-D-glucopyranose [β-glucan]",CD86 median MFI,[1],4572
same,CD163 median MFI,[1],309
same,CD33+ MDSC in peripheral blood,[2],transiently disappear
same,expression of PD-L1 on tumor cells,"[3]; β-glucan-treated M2 macrophages with addition of ABA, low binders",also increased expression
same,expression of PD-L1 on tumor cells,"[3]; β-glucan-treated M2 macrophages, high binders",increased expression
same,production of immunosuppressive cytokine IL-4,[4],no change
same,Tumor-free Survivors (day 29),[5],2/18
same,CD80 median MFI,"[6]; MoDC cultured in TCM (70% of volume, from day 0), immunosuppressive conditions",465
same,CD83 median MFI,[6]; [7],607
same,CD86 median MFI,[6]; [7],15797
same,HLA-DR median MFI,[6]; [7],361
same,CD80 median MFI,"[6]; mMoDCs, high binder",744
same,CD83 median MFI,"[6]; mMoDCs, high binder",466
same,CD86 median MFI,"[6]; mMoDCs, high binder",10759
same,HLA-DR median MFI,"[6]; mMoDCs, high binder",7049
same,CD80 median MFI,"[6]; mMoDCs, low binder",1197
same,CD83 median MFI,"[6]; mMoDCs, low binder",2924
same,CD86 median MFI,"[6]; mMoDCs, low binder",77749
same,HLA-DR median MFI,"[6]; mMoDCs, low binder",2960
